Reference: patent publication US20040082635A1, “Fused cyclic compounds and medicinal use thereof” (priority 2001, published 2004)
Counter-ions that a name gives are not always drawn.

The compounds below were run against T1, HCV polymerase (Hepatitis C virus genotype 1b, UniProt P26663) (assay: biochemical). Settings: read-out: HCV polymerase inhibitory activity IC50.
T1 construct: a region encoding NS5B (591 amino acids; J Virol 1991 Mar, 65(3), 1105-13) was amplified by PCR; 6 His (N); made in house; host or cells: Escherichia coli
T1 sequence (P26663 2420-3010): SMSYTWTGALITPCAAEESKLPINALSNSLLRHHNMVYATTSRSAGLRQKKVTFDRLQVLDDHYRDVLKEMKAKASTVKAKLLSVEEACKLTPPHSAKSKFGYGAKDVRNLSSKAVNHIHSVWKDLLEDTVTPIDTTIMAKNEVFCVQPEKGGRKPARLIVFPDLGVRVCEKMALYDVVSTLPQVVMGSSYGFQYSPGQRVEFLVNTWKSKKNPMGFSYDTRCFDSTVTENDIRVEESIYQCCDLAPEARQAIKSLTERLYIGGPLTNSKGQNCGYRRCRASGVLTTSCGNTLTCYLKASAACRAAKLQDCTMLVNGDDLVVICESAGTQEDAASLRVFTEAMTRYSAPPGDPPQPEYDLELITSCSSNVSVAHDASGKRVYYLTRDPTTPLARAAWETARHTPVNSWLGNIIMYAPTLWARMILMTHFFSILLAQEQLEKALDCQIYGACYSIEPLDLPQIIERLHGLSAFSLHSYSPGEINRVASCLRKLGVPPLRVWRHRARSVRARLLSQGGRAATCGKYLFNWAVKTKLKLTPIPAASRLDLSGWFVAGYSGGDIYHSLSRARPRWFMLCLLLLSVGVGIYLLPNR

Compared with O=C(O)c1ccc2c(c1)nc(-c1cc(C(c3cccc(F)c3)c3cccc(F)c3)c(O)cc1F)n2C1CCCCC1 [Example 440, 2-{5-[bis(3-fluorophenyl)methyl]-2-fluoro-4-hydroxyphenyl}-1-cyclohexylbenzimidazole-5-carboxylic acid], CC(C)NC(=O)c1ccc(-c2ccc(F)cc2F)c(COc2ccc(-c3nc4cc(C(=O)O)ccc4n3C3CCCCC3)c(F)c2)c1 [Example 397, 2-{4-[2-(2,4-difluorophenyl)-5-(isopropylcarbamoyl)benzyloxy]-2-fluorophenyl}-1-cyclohexylbenzimidazole-5-carboxylic acid hydrochloride] is 1.9-fold lower in IC50: 70 nM for the first, 37 nM for the second. The second is the more potent here.

O=C(O)c1ccc2c(c1)nc(-c1ccc(OCc3cc(N4CCCC4=O)ccc3-c3ccc(Cl)cc3)cc1F)n2C1CCSCC1 [Example 419, 2-{4-[2-(4-chlorophenyl)-5-(2-oxopyrrolidin-1-yl)benzyloxy]-2-fluorophenyl}-1-(tetrahydrothiopyran-4-yl)benzimidazole-5-carboxylic acid hydrochloride] and O=C(O)c1ccc2c(c1)nc(-c1ccc(OCc3cc(C(=O)N4CCC(O)CC4)ccc3-c3ccc(Cl)cc3)cc1F)n2C1CCCC1 [Example 411, 2-{4-[2-(4-chlorophenyl)-5-(4-hydroxypiperidin-1-ylcarbonyl)-benzyloxy]-2-fluorophenyl}-1-cyclopentylbenzimidazole-5-carboxylic acid hydrochloride] are within 1.5-fold of each other in IC50: 21 nM for the first, 15 nM for the second.

COC1CCN(C(=O)c2ccc(-c3ccc(Cl)cc3)c(COc3ccc(-c4nc5cc(C(=O)O)ccc5n4C4CCCCC4)cc3)c2)CC1 [Example 333, 2-{4-[2-(4-chlorophenyl)-5-(4-methoxypiperidinocarbonyl)-benzyloxy]phenyl}-1-cyclohexylbenzimidazole-5-carboxylic acid hydrochloride] and CN(C)C(=O)c1ccc(COc2ccc(-c3nc4cc(C(=O)O)ccc4n3C3CCCCC3)cc2)c(-c2ccc(Cl)cc2)c1 [Example 357, 2-{4-[2-(4-chlorophenyl)-4-(dimethylcarbamoyl)benzyloxy]phenyl}-1-cyclohexylbenzimidazole-5-carboxylic acid hydrochloride] are within 1.5-fold of each other in IC50: 16 nM for the first, 19 nM for the second.

Going from CN(C)C(=O)c1ccc(-c2ccc(C(N)=O)cc2)c(COc2ccc(-c3nc4cc(C(=O)O)ccc4n3C3CCCCC3)cc2)c1 [Example 307, 2-{4-[2-(4-carbamoylphenyl)-5-(dimethylcarbamoyl)benzyloxy]-phenyl}-1-cyclohexylbenzimidazole-5-carboxylic acid] to CSc1ccc(-c2ccc(C(=O)N(C)C)cc2COc2ccc(-c3nc4cc(C(=O)O)ccc4n3C3CCCCC3)cc2)cc1 [Example 267, 1-cyclohexyl-2-{4-[3-dimethylcarbamoyl-6-(4-methylthiophenyl)-benzyloxy]phenyl}benzimidazole-5-carboxylic acid hydrochloride], the IC50 falls from 22 nM to 14 nM (1.6-fold).

CCC(=O)N(C)c1ccc(-c2ccc(Cl)cc2)c(COc2ccc(-c3nc4cc(C(=O)O)ccc4n3C3CCCCC3)c(F)c2)c1 [Example 466, 2-[4-{2-(4-chlorophenyl)-5-[N-(ethylcarbonyl)-N-methylamino]-benzyloxy}-2-fluorophenyl]-1-cyclohexylbenzimidazole-5-carboxylic acid hydrochloride] and CCCN(C)C(=O)c1ccc(-c2ccc(Cl)cc2)c(COc2ccc(-c3nc4cc(C(=O)O)ccc4n3C3CCCCC3)c(F)c2)c1 [Example 385, 2-{4-[2-(4-chlorophenyl)-5-(N-methyl-N-propylcarbamoyl)-benzyloxy]-2-fluorophenyl}-1-cyclohexylbenzimidazole-5-carboxylic acid hydrochloride] are within 1.5-fold of each other in IC50: 23 nM for the first, 19 nM for the second.

First: O=C(O)c1ccc2c(c1)nc(-c1ccc(OCc3ccccc3-c3ccc(C(F)(F)F)cc3)cc1Cl)n2C1CCCCC1 [Example 186, 2-{2-chloro-4-[2-(4-trifluoromethylphenyl)benzyloxy]phenyl}-1-cyclohexylbenzimidazole-5-carboxylic acid]
Second: CC(=O)Nc1ccc(-c2ccc(Cl)cc2)c(COc2ccc(-c3nc4cc(C(=O)O)ccc4n3C3CCCCC3)c(F)c2)c1 [Example 458, 2-[4-{2-(4-chlorophenyl)-5-(acetylamino)benzyloxy}-2-fluorophenyl]-1-cyclohexylbenzimidazole-5-carboxylic acid hydrochloride]
The IC50 of the first is 25-fold higher: 370 nM for the first, 15 nM for the second.

Compared with O=C(O)c1ccc2c(c1)nc(-c1ccc(Oc3cccc(OCc4ccc(F)cc4)c3)cc1)n2C1CCCCC1 [Example 202, 1-cyclohexyl-2-{4-[3-(4-fluorobenzyloxy)phenoxy]phenyl}-benzimidazole-5-carboxylic acid], O=C(O)COc1cccc(Oc2ccc(-c3nc4cc(C(=O)O)ccc4n3C3CCCCC3)cc2)c1 [Example 141, 2-[4-(3-carboxymethyloxyphenoxy)phenyl]-1-cyclohexylbenzimidazole-5-carboxylic acid] is 4.5-fold higher in IC50: 95 nM for the first, 430 nM for the second.

Compared with O=C(O)c1ccc2c(c1)nc(-c1ccc(OCc3cccnc3-c3ccc(Cl)cc3)cc1)n2C1CCCCC1 [Example 234, 2-{4-[{2-(4-chlorophenyl)-3-pyridyl}methoxy]phenyl}-1-cyclohexylbenzimidazole-5-carboxylic acid dihydrochloride], Cc1nc(COc2ccc(-c3nc4cc(C(=O)O)ccc4n3C3CCCCC3)cc2)c(-c2ccc(Cl)cc2)o1 [Example 199, 1-cyclohexyl-2-{4-[{2-methyl-5-(4-chlorophenyl)-4-oxazolyl}-methoxy]phenyl}benzimidazole-5-carboxylic acid] is 5-fold higher in IC50: 22 nM for the first, 110 nM for the second. The first is the more potent here.

Compared with CCOC(=O)c1ccn2c(C3CCCCC3)c(-c3ccc(OCc4ccccc4)cc3)nc2c1 [Example 601, ethyl 2-(4-benzyloxyphenyl)-3-cyclohexylimidazo-[1,2-a]pyridine-7-carboxylate], O=C(O)c1ccc2c(c1)nc(-c1ccc(/C=C/c3ccccc3)cc1)n2C1CCCCC1 [Example 11, 1-cyclohexyl-2-{4-[(E)-2-phenylvinyl]phenyl}-benzimidazole-5-carboxylic acid] is 1.7-fold higher in IC50: 320 nM for the first, 530 nM for the second. The first is the more potent here.

Going from O=C(O)CCc1ccc(-c2ccc(Cl)cc2COc2ccc(-c3nc4cc(C(=O)O)ccc4n3C3CCCCC3)cc2)cc1 [Example 293, 2-{4-[2-{4-(2-carboxyethyl)phenyl}-5-chlorobenzyloxy]phenyl}-1-cyclohexylbenzimidazole-5-carboxylic acid] to CC(C)(C)NS(=O)(=O)c1ccc(-c2ccc(Cl)cc2)c(COc2ccc(-c3nc4cc(C(=O)O)ccc4n3C3CCCCC3)cc2)c1 [Example 249, 2-{4-[3-(tert-butylsulfamoyl)-6-(4-chlorophenyl)benzyloxy]-phenyl}-1-cyclohexylbenzimidazole-5-carboxylic acid], the IC50 falls from 34 nM to 22 nM (1.5-fold).

Going from COc1ccc(-c2ccc(Cl)cc2)c(COc2ccc(-c3cc4cc(C(=O)O)ccc4n3C3CCCCC3)cc2)c1 [Example 502, 2-{4-[2-(4-chlorophenyl)-5-methoxybenzyloxy]phenyl}-1-cyclohexyl-1H-indole-5-carboxylate acid] to O=C(O)c1ccc2c(c1)nc(-c1ccc(OCc3cc(C(=O)N4CCOCC4)ccc3-c3ccc(Cl)cc3)cc1F)n2C1CCCCC1 [Example 290, 2-{4-[2-(4-chlorophenyl)-5-morpholinocarbonylbenzyloxy]-2-fluorophenyl}-1-cyclohexylbenzimidazole-5-carboxylic acid], the IC50 falls from 24 nM to 12 nM (2-fold). The second is the more potent here.
